PMC11199504, “New hemisynthetic derivatives of sphaeropsidin phytotoxins triggering severe endoplasmic reticulum swelling in cancer cells” (Scientific Reports, 2024)
Read-outs that look alike come from different tables or passages of the source.

Legend:
[1] = test system: 60 cancer cell line panel; conditions: NCI database value; ref NCI database; read-out: LC50 (NCI); cited from earlier work
[2] = test system: A549; test: MTT colorimetric assay, A549; type: cell-based; conditions: Homo sapiens, 72 h treatment, mean ± SEM of six replicates of one experiment (1: 7, 13: 6 independent experiments), resistant to apoptosis, read-out: IC50 determined by MTT assays, A549
Source text: (§1) Cancer cell lines were obtained from either the European Collection of Cell Cultures (ECACC; Salisbury, UK) or the American Type Culture Collection (ATCC; Manassas, VA). The two glioma cell lines were the U373 (ECACC code 08061901) and Hs683 (ATCC HTB-138) cell lines. The carcinoma cell lines were the A549 non-small cell carcinoma cell line (ATCC code CCL 185) and the MCF-7 mammary breast carcinoma cell line (ATCC code HTB-22). The melanoma cell lines were the mouse B16F10 cells (ATCC code CRL-6475) and the human SKMEL-28 cells (ATCC code HTB-72). The ovarian cancer cell line A2780 and its cisplatin-resistant subline A2780cis were obtained from Sigma-Aldrich (St. Louis, MO, USA). Colon cancer HCT116 cells were obtained from ATCC (CCL-247) and the oxaliplatin-resistant subline HCT116/OxR established in the W. Berger lab[59]. The HeLa cell derivative KB-3-1 and the colchicine-selected, highly ABCB1-overexpressing subline KB-C-1 were generously donated by Dr. D. W. Shen, Bethesda, MD. RKOp53wt colon cancer cells together with the RKOp53KO (homozygous knock-out) subline[60] were generously provided by Dr. Vogelstein from John Hopkins University, Baltimore. The correct origin of all cell models was confirmed by STR during performance of the experiments. All cell lines were cultured in RPMI1640 culture medium supplemented with 10% heat-inactivated fetal bovine serum, 2% L-glutamine (0.6 mg/mL), 2% penicillin/streptomycin (200 IU/mL and 200 μg/mL) and 0.1 mg/mL gentamicin.
(§2) The MTT (3-(4,5-dimethylthiazol-2-yl)-2,5-diphenyl tetrazolium bromide) colorimetric assay has been conducted as described previously. Briefly, cells were seeded 24 h before their treatment with each compound for a period of 72 h. The concentrations tested ranged from 10 nM to 100 µM. Each assay was conducted in sextuplicates. The number of independent experiments is mentioned in the legend of the tables.

[3] = test system: SKMEL-28; test: MTT colorimetric assay, SKMEL-28; type: cell-based; conditions: Homo sapiens, SK-MEL-28; 72 h treatment; mean ± SEM; resistant to apoptosis; read-out: IC50 determined by MTT assays, SKMEL-28
Source text: as §1, §2

[4] = test system: U373; test: MTT colorimetric assay, U373; type: cell-based; conditions: Homo sapiens, U373 MG; 72 h treatment; mean ± SEM; resistant to apoptosis; read-out: IC50 determined by MTT assays, U373
Source text: as §1, §2

[5] = test system: MCF7; test: MTT colorimetric assay, MCF7; type: cell-based; conditions: Homo sapiens, 72 h treatment, mean ± SEM, sensitive to apoptosis, read-out: IC50 determined by MTT assays, MCF7
Source text: as §1, §2

[6] = test system: Hs683; test: MTT colorimetric assay, Hs683; type: cell-based; conditions: Homo sapiens, Hs 683; 72 h treatment; mean ± SEM; sensitive to apoptosis; read-out: IC50 determined by MTT assays, Hs683
Source text: as §1, §2

[7] = test system: B16F10; test: MTT colorimetric assay, B16F10; type: cell-based; conditions: Mus musculus, B16-F10; 72 h treatment; mean ± SEM; sensitive to apoptosis; read-out: IC50 determined by MTT assays, B16F10
Source text: as §1, §2

[8] = test system: A549, SKMEL-28, U373, MCF7, Hs683, B16F10; test: MTT colorimetric assay, mean of the six cell lines; type: cell-based; conditions: for IC50: mean over the six cell lines, 72 h treatment, read-out: IC50 determined by MTT assays, Mean
Source text: as §1, §2

[9] = test system: Hct116; test: MTT assay, Hct116 (parental sensitive); type: cell-based; conditions: 72 h treatment; ± standard deviation; parental sensitive model; read-out: IC50 determined by MTT assays, Hct116
Source text: as §1, §2
(§3) SI Table 1: IC50 determined by MTT assays. Mean concentration (± standard deviation) in µM required to
(§4) reduce the viability of cells by 50% after a 72 h treatment relative to the control.
(§5) Parental sensitive models Drug-resistant models

[10] = test system: Hct116/OxR; test: MTT assay, Hct116/OxR (oxaliplatin-resistant); type: cell-based; conditions: 72 h treatment; ± standard deviation; drug-resistant model; read-out: IC50 determined by MTT assays, Hct116/OxR
Source text: as §1, §2, §3, §4, §5

[11] = test system: KB-3-1; test: MTT assay, KB-3-1 (parental sensitive); type: cell-based; conditions: Homo sapiens, KB 3-1, 72 h, read-out: IC50 determined by MTT assays, KB-3-1
Source text: as §1, §2, §3, §4, §5

[12] = test system: KB-C-1; test: MTT assay, KB-C-1 (ABCB1-overexpressing); type: cell-based; conditions: KBC-1, 72 h, read-out: IC50 determined by MTT assays, KB-C-1
Source text: as §1, §2, §3, §4, §5

[13] = test system: A2780; test: MTT assay, A2780 (parental sensitive); type: cell-based; conditions: 72 h treatment; ± standard deviation; parental sensitive model; read-out: IC50 determined by MTT assays, A2780
Source text: as §1, §2, §3, §4, §5

[14] = test system: RKO/P53wt; test: MTT assay, RKO/P53wt (parental sensitive); type: cell-based; conditions: 72 h treatment; ± standard deviation; parental sensitive model; read-out: IC50 determined by MTT assays, RKO/P53wt
Source text: as §1, §2, §3, §4, §5

[15] = test system: A2780R; test: MTT assay, A2780R (cisplatin-resistant); type: cell-based; conditions: 72 h treatment; ± standard deviation; drug-resistant model; read-out: IC50 determined by MTT assays, A2780R
Source text: as §1, §2, §3, §4, §5

[16] = test system: RKO/p53ko; test: MTT assay, RKO/p53ko; type: cell-based; conditions: 72 h treatment; ± standard deviation; drug-resistant model; read-out: IC50 determined by MTT assays, RKO/p53ko
Source text: as §1, §2, §3, §4, §5

CC/C(=C(\c1ccccc1)c1ccc(OCCN(C)C)cc1)c1ccccc1 [Tamoxifen]
CC50 [1]: 26000 nM

COC(=O)CCC=CC1(C)C=C2C(=O)C3(O)OC(=O)C4(CCCC(C)(C)C34)C2(O)CC1 (stereo not shown) [Compound 7]
IC50 [2]: 4500 ± 70 nM
IC50 [3]: 5060 ± 580 nM
IC50 [4]: 7750 ± 310 nM
IC50 [5]: 6880 ± 260 nM
IC50 [6]: 3630 ± 150 nM
IC50 [7]: 2330 ± 290 nM
IC50 ([8]; 72 h): 5030 ± 820 nM

CCCCC=CC1(C)C=C2C(=O)C3(O)OC(=O)C4(CCCC(C)(C)C34)C2(O)CC1 (stereo not shown) [Compound 9]
IC50 [2]: 630 ± 30 nM
IC50 [3]: 1150 ± 110 nM
IC50 [4]: 1390 ± 150 nM
IC50 [5]: 470 ± 30 nM
IC50 [6]: 1110 ± 140 nM
IC50 [7]: 520 ± 20 nM
IC50 ([8]; 72 h): 880 ± 160 nM

CNC(=O)ON(C(C)=O)C(=O)NC [Caracemide]
CC50 [1]: 625000 nM

CC1(C=CCCCCc2ccc3ccc4cccc5ccc2c3c45)C=C2C(=O)C3(O)OC(=O)C4(CCCC(C)(C)C34)C2(O)CC1 (stereo not shown) [Compound 23]
IC50 [2]: 600 ± 20 nM
IC50 [3]: 370 ± 10 nM
IC50 [4]: 660 ± 20 nM
IC50 [5]: 420 ± 30 nM
IC50 [6]: 640 ± 20 nM
IC50 [7]: 270 ± 10 nM
IC50 ([8]; 72 h): 490 ± 70 nM

COc1ccc(C(=O)/C(Br)=C\C(=O)O)cc1 [Cytembena]
CC50 [1]: 802000 nM

O=C1[O][Pt]2([NH][C@@H]3CCCC[C@H]3[NH]2)[O]C1=O [oxaliplatin]
IC50 [9]: 600 ± 80 nM
IC50 [10]: 22100 ± 2300 nM

CC(=O)N(C)c1ccc(Nc2cc(C)nc3ccc4[nH]cnc4c23)cc1 [Acodazole]
CC50 [1]: 114000 nM

COc1cccc2c1C(=O)c1c(O)c3c(c(O)c1C2=O)C[C@@](O)(C(=O)CO)C[C@@H]3O[C@H]1C[C@H](N)[C@H](O)[C@H](C)O1 [doxorubicin]
IC50 [11]: 59 ± 30 nM
IC50 [12]: > 250000 nM

N.N.[Cl][Pt][Cl] [cisplatin]
IC50 [13]: 1800 ± 90 nM
IC50 [14]: 2000 ± 300 nM
IC50 [15]: > 10000 nM
IC50 [16]: 3700 ± 1200 nM

CC1(C=CCCCC(=O)O)C=C2C(=O)C3(O)OC(=O)C4(CCCC(C)(C)C34)C2(O)CC1 (stereo not shown) [Compound 8]
IC50 [2]: > 100000 nM
IC50 [3]: > 100000 nM
IC50 [4]: > 100000 nM
IC50 [5]: > 100000 nM
IC50 [6]: 85300 ± 5250 nM
IC50 [7]: 81300 ± 2420 nM
IC50 ([8]; 72 h): > 94000 nM
activity in the cancer cell panel ([8]; MTT, alone): inactive
IC50 [8]: > 94400 nM

COc1ccc2c(c1)-c1nn(CCCN(C)C)c3ccc([N+](=O)[O-])c(c13)N2 [Pyrazolo acridine]
CC50 [1]: 23300 nM
